Test results as given in patent publication US20100196492A1, “ELECTROSTATIC COATING OF PARTICLES FOR DRUG DELIVERY” (priority 2007, published 2010).

Key:
HUVECs = assay: GFP transfection of confluent HUVECs in 12% serum, FACS; assay type: cell-based, Human; conditions: 40 w/w C32; N/P 1.55
From the text: GFP Transfections. Fluorescent Activated Cell Sorting (FACS) and enhanced green fluorescent protein (EGFP) DNA were utilized to determine the efficacy of nanoparticle gene delivery. FACS data was interpreted by using a two-dimensional contour plot that compares the ratio of EGFP channel fluorescence (x-axis) to yellow channel autofluorescence (y-axis) for greater accuracy than a one-dimensional histogram as previously described. […] These experiments took place under conditions generally seen as difficult for in vitro transfection, but important for an in vivo cardiovascular application: fully confluent, and therefore non-dividing, primary cells in the presence of a high concentration of serum proteins.
GFP Transfections. Non-viral nanoparticle transfections were performed on confluent HUVECs in the presence of 12% serum. HUVECs were seeded (75,000 cells/well) into clear 24-well plates (Becton Dickinson, Franklin Lakes, N.J., USA) at 24 hours prior to transfection to allow for growth to confluence. Nanoparticles were constructed as previously mentioned using a 6 μg DNA basis per well. Then 150 μL of each polymer/DNA/peptide nanoparticle solution was added to 1.00 mL of FBS supplemented EGM-2 media (12% Serum). […]
Flow Cytometry. GFP expression was measured using Fluorescence Activated Cell Sorting (FACS) on a FACSCalibur (Becton Dickinson, San Jose, Calif., USA). […]

LS174T cells = assay: Cytotoxicity of gelonin coated C32/DNA particles; assay type: cell-based; conditions: single treatment; 70 w/w C32, 600 ng DNA, 100 nM gelonin; colon cancer cells
Experimental: FIG. 14. Cytotoxity of composition on cells using a cytotoxic drug itself as the coating. 70 w/w C32 particles with 600 ng DNA were coated with 100 nM gelonin (a 28 kD protein) to test the cytotoxicity of the compostion in LS174T cells.
Unformulated gelonin is unable to reach the cytoplasm unassisted. In constrast, the gelonin coated nanoparticles are able to be effectively internalized into the cell and released from the endosomal compartment into the cytoplasm, where they are active.

In the case of EEEEEEEEEEEEGGGGGGGRDGS [E12-RDG], the “transfection of HUVECs (FACS gating of GFP)” value (HUVECs) is reported as “do not”.

In the case of gelonin, the cells killed (LS174T cells) is reported as “unable to kill any of the cells”.
